# Assay results from paper PMC3401313 (Bioorganic & medicinal chemistry letters, 2012).
# Experiments:
# [1] = target: recombinant His-tagged HDAC2 (Homo sapiens, UniProt Q92769); assay type: binding; conditions: probe 25 µM, HDAC2 1.25 µM, Trichostatin A 125 µM (5-fold molar excess), 24 h preincubation, 254 nm UV
# [2] = target: recombinant human HDAC3 (Homo sapiens, UniProt O15379); experiment: HDAC3 fluorogenic inhibition assay; conditions: read-out: HDAC3 %Inhibition(10µM)
# recombinant human HDAC3, sequence (O15379 whole entry): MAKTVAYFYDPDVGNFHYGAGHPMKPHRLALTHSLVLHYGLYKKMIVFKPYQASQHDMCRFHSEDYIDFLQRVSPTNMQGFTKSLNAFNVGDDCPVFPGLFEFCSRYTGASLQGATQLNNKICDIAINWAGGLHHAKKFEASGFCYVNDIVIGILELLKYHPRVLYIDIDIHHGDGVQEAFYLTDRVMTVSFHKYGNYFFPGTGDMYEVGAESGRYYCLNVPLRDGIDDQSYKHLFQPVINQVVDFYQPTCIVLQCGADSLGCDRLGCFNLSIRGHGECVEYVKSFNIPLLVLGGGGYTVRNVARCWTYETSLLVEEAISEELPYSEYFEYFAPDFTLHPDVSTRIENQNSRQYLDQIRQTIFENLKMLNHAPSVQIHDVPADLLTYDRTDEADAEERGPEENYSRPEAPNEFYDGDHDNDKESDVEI
# recombinant human HDAC3, sequence (Q9Y618 395-489 partner limits assumed): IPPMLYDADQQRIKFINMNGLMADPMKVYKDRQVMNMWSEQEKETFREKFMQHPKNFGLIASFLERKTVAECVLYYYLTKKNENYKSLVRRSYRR
# recombinant His-tagged HDAC2, sequence (Q92769 whole entry): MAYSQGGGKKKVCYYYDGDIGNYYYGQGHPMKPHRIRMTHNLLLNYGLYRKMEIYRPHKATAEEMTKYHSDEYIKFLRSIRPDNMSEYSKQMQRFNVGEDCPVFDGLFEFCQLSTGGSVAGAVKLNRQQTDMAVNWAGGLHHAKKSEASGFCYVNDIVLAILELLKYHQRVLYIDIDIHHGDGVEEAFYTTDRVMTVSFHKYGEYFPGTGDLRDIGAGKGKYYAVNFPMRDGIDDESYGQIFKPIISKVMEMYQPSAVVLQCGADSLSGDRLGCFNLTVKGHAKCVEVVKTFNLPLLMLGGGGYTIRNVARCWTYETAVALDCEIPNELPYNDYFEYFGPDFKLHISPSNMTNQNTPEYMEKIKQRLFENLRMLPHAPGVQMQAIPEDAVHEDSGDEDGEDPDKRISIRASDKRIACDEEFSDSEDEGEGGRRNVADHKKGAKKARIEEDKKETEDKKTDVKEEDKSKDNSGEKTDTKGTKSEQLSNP
SMILES,biotinylation of HDAC2 in competition with Trichostatin A [1],inhibition at 10 µM [2] [%]
[N-]=[N+]=NCCC(=O)Nc1ccc(C(=O)Nc2cc(N=[N+]=[N-])ccc2N)cc1 [1g],slightly less pronounced,
"O=C(CCCCCCC(=O)Nc1ccccc1)NO [SAHA, suberoyl anilide hydroxamic acid]",,100
